Like-named read-outs stand apart in the source and are kept apart here.
Legend:
HTLV-1 [1] = test: HTLV-1 infection of Jurkat cells by cell-to-cell transmission (co-culture with irradiated MT-2), proviral load by qPCR; assay type: cell-based, Human T-cell lymphotropic virus type 1; details: for EC50: read-out: Antiviral activity EC50 (HTLV-1)
Procedure: (§1) Jurkat cells were pre-treated with increasing amounts of INSTI (0.2 pM–2 μM in DMSO), or the carrier (DMSO) for 24 h. MT-2 cells were resuspended to a concentration of 2 × 10^6 cells/mL and exposed to a sub-lethal dose of gamma-irradiation (40,000 Rad). Cells were resuspended in serum-free RPMI to a concentration of 2 × 10^6 cells/mL in the presence of drug, and 0.5 × 10^6 of each cell type were co-cultured for 18 h. Following co-culture, cells were washed in PBS and resuspended in 1 mL of depletion buffer (0.1% FBS, 2 mM EGTA, PBS) before gentle tumbling (1 h, 4°C) with 25 μL of anti-CD25 + magnetic beads (DynaBeads, Thermo Fisher Scientific) to deplete MT-2 cells. Following depletion, the unbound fraction, i.e., Jurkat cells were maintained in RPMI with the drug present for 16 days before genomic DNA harvest (DNeasy kit, Qiagen). All experiments were done in triplicate. Depletion of MT-2 cells was verified by FACS. For cellular toxicity measurements, Jurkat cells were grown in the presence of the INSTIs as described above. Viability was measured by live dead stain (Hoechst 33258) and analyzed by FACS.
Proviral load (PVL) was estimated as previously described ([Manivannan et al., 2016]; [Rowan et al., 2016]). Genomic DNA concentrations were measured by nanospectroscopy (DeNovix), and samples were diluted to 5 ng/μL for real-time PCR (qPCR) analysis. qPCR reactions were performed for both the HTLV-1 tax gene and the human GAPDH gene (Supplementary Table S2). Gene copy numbers were determined by comparison to standard curves generated from a clone with a known single integration site (clone 11.50, courtesy of Prof. Charles Bangham). PVL was calculated by comparison of tax and GAPDH copy numbers as a fraction, multiplied by 100 to generate a percentile value assuming a single copy of tax and two copies of GAPDH per infected cell ([Lairmore et al., 1989]). Alu-PCR was performed as described previously ([Alais et al., 2015]), with the modification that the nested PCR was also run as a qPCR using SYBR-green (primers used are shown in Supplementary Table S2). Integrated provirus copy numbers were normalized to GAPDH, and DMSO treated HTLV-1 infected Jurkat cells were arbitrarily set to 100%. Averages and standard deviations of three independent experiments are shown. P-values were calculated using the student’s t-test.

HTLV-1 [2] = test system: HTLV-1; design: method as in Pasquier et al., 2018; details: ref Pasquier et al., 2018, cited from earlier work
HIV-1 = details: read-out: HIV-1 antiviral activity EC50, cited from earlier work
HTLV-1 integrase = biological target: T1, HTLV-1 integrase (Human T-cell leukemia virus 1, UniProt P03362); test: In vitro HTLV-1 integrase strand transfer assay (concerted integration, agarose gel densitometry); assay type: biochemical; details: for Inhibition of enzymatic activity Hill slope: dose-response fit of strand transfer inhibition
T1 construct: Full-length wild type HTLV-1 IN was recombinantly expressed, purified, and characterized; SUMO (pET28a-SUMO fusion) (N); made in house
Procedure: Donor DNA mimicking the U5 3′-processed LTR ends of the viral DNA copy was prepared by annealing oligonucleotides (Supplementary Table S1), in 100 mM Tris pH 7.4, 400 mM NaCl. The optimized conditions for the strand transfer reactions are as follows: a solution was prepared containing 73 mM PIPES pH 6.0, 175 mM NaCl, 16.7 mM MgCl2, 5.8 μM ZnCl2, 12.8 mM DTT, 0.53 μM donor DNA, and 0.8 μM HTLV-1 integrase. Following a 30 min room temperature incubation in the presence or absence of INSTIs in the final concentration of 5% DMSO, the reaction was initiated by addition of 300 ng of pGEM-9Zf(−) supercoiled plasmid DNA. The total volume of each reaction was 150 μL. Reactions were carried out at 37°C for 30 min and were processed as described previously ([Maertens et al., 2010]). All reactions were performed in these conditions unless otherwise stated in the Figure legend. Reactions that included B′γ were done with equimolar ratio of IN to B′γ. The precipitated DNA was resuspended in agarose loading dye and analyzed on a 1.5% agarose gel run in 1× TAE buffer and stained with ethidium bromide. Bands corresponding to products of concerted integration were quantified by densitometry in ImageLab 4.1 (Bio-Rad). All experiments were done in triplicate.
Quantified data points were fitted to a dose-response curve in Prism 7. Cumulative standard deviation for each drug was calculated as an average of the upper limit and lower limit values: […]

[3] = Cellular toxicity in Jurkat cells (live dead stain Hoechst 33258, FACS); assay type: cell-based; details: human
Procedure: as §1, with “MT-2” for “Jurkat cells were pre-treated with increasing amounts of INSTI (0.2 pM–2 μM in DMSO), or the carrier (DMSO) for 24 h. MT-2”

[4] = Jurkat cells co-cultured with irradiated MT-2, PVL 16 days post-infection
[5] = HTLV-1 IN 0.8 μM, concerted integration product
[6] = HTLV-1 IN 0.8 μM, concerted integration product, triplicate, read-out: Inhibition of enzymatic activity IC50
[7] = Primate T-lymphotropic virus 1, Jurkat, light or radiation study, 384 h, Jurkat cells co-cultured with irradiated MT-2, PVL 16 days post-infection

T1 sequence (P03362 1168-1462): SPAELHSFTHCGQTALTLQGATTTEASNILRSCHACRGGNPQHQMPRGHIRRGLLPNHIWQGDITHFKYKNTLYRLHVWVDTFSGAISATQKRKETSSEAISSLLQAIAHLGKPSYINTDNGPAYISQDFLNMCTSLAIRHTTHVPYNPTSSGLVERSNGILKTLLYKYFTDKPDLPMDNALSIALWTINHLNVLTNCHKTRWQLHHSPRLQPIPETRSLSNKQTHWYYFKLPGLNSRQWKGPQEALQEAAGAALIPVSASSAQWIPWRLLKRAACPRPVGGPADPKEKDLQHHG

SMILES | Inhibition of enzymatic activity IC95 (HTLV-1 integrase; [5]) | IC50 (HTLV-1 integrase; [6]) | Inhibition of enzymatic activity Hill slope (HTLV-1 integrase) | Antiviral activity EC95 (HTLV-1) (HTLV-1 [1]; [4]) | EC50 (HIV-1; ref a) | other results
CC(C)OC(=O)OCOP(=O)(CO[C@H](C)Cn1cnc2c(N)ncnc21)OCOC(=O)OC(C)C.O=C(O)/C=C/C(=O)O [TDF, tenofovir disproxil fumarate] | – | – | – | – | – | EC50 (HTLV-1 [1]; [4]): 17.8 ± 7.16 nM; HTLV-1 infection blocked (HTLV-1 [2]; at concentrations of 10 μM): about 50%
Cn1c(N2CCCCS2(=O)=O)nc(C(=O)NCc2ccc(F)cc2)c(O)c1=O [BMS-707035] | 12200 ± 2900 nM | 350 ± 74 nM | 0.83 | – | – | EC50 (HIV-1; ref c): 2.5 nM
COc1cc2c(cc1Cc1cccc(Cl)c1F)c(=O)c(C(=O)O)cn2[C@H](CO)C(C)C [Elvitegravir, elvitegravir] | 1900 ± 304 nM | – | 1.0 | 1270 ± 735 nM | – | CC50 [3]: > 20000 nM; IC50 (HTLV-1 integrase): 100 ± 16 nM; EC50 (HTLV-1 [1]; [7]): 9.57 ± 5.54 nM
C[C@@H]1CCO[C@H]2Cn3cc(C(=O)NCc4ccc(F)cc4F)c(=O)c(O)c3C(=O)N12 [Dolutegravir, dolutegravir] | 3020 ± 485 nM | 260 ± 59 nM | 1.2 | – | 1.4 ± 0.3 nM | –
Cc1cn([C@H]2C[C@H](N=[N+]=[N-])[C@@H](CO)O2)c(=O)[nH]c1=O [zidovudine] | – | – | – | – | – | inhibition of HTLV-1 infection (HTLV-1 [2]; at 50 μM concentration): 10–20%
O=C(NCc1c(F)cc(F)cc1F)c1cn2c(c(O)c1=O)C(=O)N1[C@H]3CC[C@H](C3)O[C@@H]1C2 [Bictegravir, bictegravir] | 2090 ± 437 nM | 180 ± 29 nM | 1.2 | 31.8 ± 18.2 nM | 1.6 ± 0.4 nM | CC50 [3]: > 20000 nM; activity relative to elvitegravir (HTLV-1 integrase; in vitro assays, versus elvitegravir): ~55%; fold higher activity than raltegravir or elvitegravir, respectively (HTLV-1 [1]; HTLV-1 cell-to-cell infection model, versus raltegravir or elvitegravir): 20–30 fold; EC50 (HTLV-1 [1]; [4]): 0.302 ± 0.173 nM; EC50 (HTLV-1 [1]; [7]): 0.3 ± 0.17 nM; more potent than TDF in blocking HTLV-1 infection (HTLV-1 [1]; versus TDF): ~60
Cc1nnc(C(=O)NC(C)(C)c2nc(C(=O)NCc3ccc(F)cc3)c(O)c(=O)n2C)o1 [Raltegravir, raltegravir] | 29920 ± 5750 nM | – | 0.73 | 1020 ± 675 nM | 9.4 ± 1.4 nM | CC50 ([3]; Jurkat cells, read-out: CC50): > 20000 nM; IC50 (HTLV-1 integrase): 530 ± 102 nM; EC50 (HTLV-1 [1]; Primate T-lymphotropic virus 1, Jurkat, light or radiation study, 384 h): 6.42 ± 4.24 nM

Source: PMC6705210, “Inhibition of HTLV-1 Infection by HIV-1 First- and Second-Generation Integrase Strand Transfer Inhibitors” (Frontiers in Microbiology, 2019)
